Earlier results as cited in US20200172966A1 (YAMAGUCHI UNIVERSITY, priority 2015, published 2020).

Settings: patients identified as non-high-risk based on polymorphisms of the UGT1A gene; cited from earlier work

SMILES: CCc1c2c(nc3ccc(OC(=O)N4CCC(N5CCCCC5)CC4)cc13)-c1cc3c(c(=O)n1C2)COC(=O)[C@]3(O)CC [irinotecan, 1,4′-Bipiperidine-1′-carboxylic acid (S)-4,11-diethyl-3,4,12,14-tetrahydro-4-hydroxy-3,14-dioxo-1H-pyrano[3′,4′:6,7]indolizino[1,2-b]quinolin-9-yl ester]
- patients with a side effect: 43%
